Assays:
[1] = target: T1, Human-derived DNA-PK kinase (Homo sapiens, UniProt P78527); experiment: DNA-PK enzyme activity test (HTRF, phosphorylation of GST-cMyc-p53); assay type: biochemical
T1 construct: Eurofins (contract laboratory that ran the test)
Protocol: (§1) The compounds of the present disclosure used for experiments are all prepared in-house, and their chemical names and structural formulas are shown in the preparation examples of each compound. The experimental tests were carried out by a UK company Eurofins, and the experimental results were provided by the company. The following experimental processes were also provided by the company.
(§2) Human-derived DNA-PK kinase was incubated in a buffer solution containing 50 nM of GST-cMyc-p53 and Mg/ATP. The concentration of Mg/ATP was determined according to different needs. The reaction was initiated by adding a Mg/ATP complex. After incubating for about 30 minutes at room temperature, a stop solution containing EDTA was added to stop the reaction. Finally, for phosphorylated p53, a detection buffer containing a d2-labeled anti-GST monoclonal antibody and an europium-labeled phosphorylated Ser15 antibody was added. Then time-resolved fluorescence mode was used to read a detection disk, and a homogeneous time-resolved fluorescence (HTRF) signal was obtained by calculating formula HTRF=10000×(Em665 nm/Em620 nm).

Human-derived ATM kinase = target: T2, Human-derived ATM kinase (Homo sapiens, UniProt Q13315); experiment: ATM enzyme activity test (HTRF, phosphorylation of GST-cMyc-p53); assay type: biochemical
T2 construct: Eurofins (contract laboratory that ran the test)
Protocol: as §1
as §2, with “ATM” for “DNA-PK”, “30” for “50”

[2] = test system: human lung cancer H446 cell subcutaneous xenograft tumor; experiment: In vivo efficacy of ATM inhibitors and etoposide in H446 subcutaneous xenograft model; design: species or system female BALB/c nude mouse; details: etoposide 15 mg/kg IP, ATM inhibitor 5 mg/kg PO; for Tumor volume (mm^3) / Tumor volume (mm^3) (Day 26): Mean ± SEM; for T/C (%) tumor proliferation rate / TGI (%) tumor growth inhibition rate: Day 26; for Tumor volume (mm^3) (Day 26): Day 26 after administration
Protocol: Evaluation of the in vivo efficacy of the test drug ATM inhibitor and etoposide in a BALB/c nude mouse model with human lung cancer H446 cell subcutaneous xenograft tumor via intraperitoneal or oral administration.
5% CO2 culture. Conventional digestion treatment with pancreatin-EDTA for passage was carried out twice a week. When the cell saturation was 80% to 90%, the cells were collected, counted and inoculated.
0.2 mL 5×10^6 of H446 cells (1:1 plus matrigel) were subcutaneously inoculated on the right back of each nude mouse. The grouping and administration were started when the average tumor volume reached 125 mm^3 (Table).
The experimental index was to investigate whether the tumor growth was inhibited, delayed or cured. Tumor diameter was measured twice a week with a vernier caliper. The calculation formula of tumor volume: V=0.5a×b^2, wherein a and b represented the long and short diameters of the tumor, respectively.
Tumor proliferation rate T/C (%): wherein T is the average tumor volume obtained from the last measurement (PG-D26) of the treatment group, and C is the average tumor volume obtained from the last measurement (PG-D26) of the control group.
Mean value and standard error (SEM) of the tumor volume of each group at each time point were included (specific data is shown in tables). […] The comparison between two groups was analyzed by T-test, and the comparison between three or more groups was analyzed by one-way ANOVA. If there was heterogeneity of variance, the Games-Howell test was applied. If there was homogeneity of variance, the Dunnet (2-sided) test was used for analysis.

T2 sequence (Q13315 whole entry): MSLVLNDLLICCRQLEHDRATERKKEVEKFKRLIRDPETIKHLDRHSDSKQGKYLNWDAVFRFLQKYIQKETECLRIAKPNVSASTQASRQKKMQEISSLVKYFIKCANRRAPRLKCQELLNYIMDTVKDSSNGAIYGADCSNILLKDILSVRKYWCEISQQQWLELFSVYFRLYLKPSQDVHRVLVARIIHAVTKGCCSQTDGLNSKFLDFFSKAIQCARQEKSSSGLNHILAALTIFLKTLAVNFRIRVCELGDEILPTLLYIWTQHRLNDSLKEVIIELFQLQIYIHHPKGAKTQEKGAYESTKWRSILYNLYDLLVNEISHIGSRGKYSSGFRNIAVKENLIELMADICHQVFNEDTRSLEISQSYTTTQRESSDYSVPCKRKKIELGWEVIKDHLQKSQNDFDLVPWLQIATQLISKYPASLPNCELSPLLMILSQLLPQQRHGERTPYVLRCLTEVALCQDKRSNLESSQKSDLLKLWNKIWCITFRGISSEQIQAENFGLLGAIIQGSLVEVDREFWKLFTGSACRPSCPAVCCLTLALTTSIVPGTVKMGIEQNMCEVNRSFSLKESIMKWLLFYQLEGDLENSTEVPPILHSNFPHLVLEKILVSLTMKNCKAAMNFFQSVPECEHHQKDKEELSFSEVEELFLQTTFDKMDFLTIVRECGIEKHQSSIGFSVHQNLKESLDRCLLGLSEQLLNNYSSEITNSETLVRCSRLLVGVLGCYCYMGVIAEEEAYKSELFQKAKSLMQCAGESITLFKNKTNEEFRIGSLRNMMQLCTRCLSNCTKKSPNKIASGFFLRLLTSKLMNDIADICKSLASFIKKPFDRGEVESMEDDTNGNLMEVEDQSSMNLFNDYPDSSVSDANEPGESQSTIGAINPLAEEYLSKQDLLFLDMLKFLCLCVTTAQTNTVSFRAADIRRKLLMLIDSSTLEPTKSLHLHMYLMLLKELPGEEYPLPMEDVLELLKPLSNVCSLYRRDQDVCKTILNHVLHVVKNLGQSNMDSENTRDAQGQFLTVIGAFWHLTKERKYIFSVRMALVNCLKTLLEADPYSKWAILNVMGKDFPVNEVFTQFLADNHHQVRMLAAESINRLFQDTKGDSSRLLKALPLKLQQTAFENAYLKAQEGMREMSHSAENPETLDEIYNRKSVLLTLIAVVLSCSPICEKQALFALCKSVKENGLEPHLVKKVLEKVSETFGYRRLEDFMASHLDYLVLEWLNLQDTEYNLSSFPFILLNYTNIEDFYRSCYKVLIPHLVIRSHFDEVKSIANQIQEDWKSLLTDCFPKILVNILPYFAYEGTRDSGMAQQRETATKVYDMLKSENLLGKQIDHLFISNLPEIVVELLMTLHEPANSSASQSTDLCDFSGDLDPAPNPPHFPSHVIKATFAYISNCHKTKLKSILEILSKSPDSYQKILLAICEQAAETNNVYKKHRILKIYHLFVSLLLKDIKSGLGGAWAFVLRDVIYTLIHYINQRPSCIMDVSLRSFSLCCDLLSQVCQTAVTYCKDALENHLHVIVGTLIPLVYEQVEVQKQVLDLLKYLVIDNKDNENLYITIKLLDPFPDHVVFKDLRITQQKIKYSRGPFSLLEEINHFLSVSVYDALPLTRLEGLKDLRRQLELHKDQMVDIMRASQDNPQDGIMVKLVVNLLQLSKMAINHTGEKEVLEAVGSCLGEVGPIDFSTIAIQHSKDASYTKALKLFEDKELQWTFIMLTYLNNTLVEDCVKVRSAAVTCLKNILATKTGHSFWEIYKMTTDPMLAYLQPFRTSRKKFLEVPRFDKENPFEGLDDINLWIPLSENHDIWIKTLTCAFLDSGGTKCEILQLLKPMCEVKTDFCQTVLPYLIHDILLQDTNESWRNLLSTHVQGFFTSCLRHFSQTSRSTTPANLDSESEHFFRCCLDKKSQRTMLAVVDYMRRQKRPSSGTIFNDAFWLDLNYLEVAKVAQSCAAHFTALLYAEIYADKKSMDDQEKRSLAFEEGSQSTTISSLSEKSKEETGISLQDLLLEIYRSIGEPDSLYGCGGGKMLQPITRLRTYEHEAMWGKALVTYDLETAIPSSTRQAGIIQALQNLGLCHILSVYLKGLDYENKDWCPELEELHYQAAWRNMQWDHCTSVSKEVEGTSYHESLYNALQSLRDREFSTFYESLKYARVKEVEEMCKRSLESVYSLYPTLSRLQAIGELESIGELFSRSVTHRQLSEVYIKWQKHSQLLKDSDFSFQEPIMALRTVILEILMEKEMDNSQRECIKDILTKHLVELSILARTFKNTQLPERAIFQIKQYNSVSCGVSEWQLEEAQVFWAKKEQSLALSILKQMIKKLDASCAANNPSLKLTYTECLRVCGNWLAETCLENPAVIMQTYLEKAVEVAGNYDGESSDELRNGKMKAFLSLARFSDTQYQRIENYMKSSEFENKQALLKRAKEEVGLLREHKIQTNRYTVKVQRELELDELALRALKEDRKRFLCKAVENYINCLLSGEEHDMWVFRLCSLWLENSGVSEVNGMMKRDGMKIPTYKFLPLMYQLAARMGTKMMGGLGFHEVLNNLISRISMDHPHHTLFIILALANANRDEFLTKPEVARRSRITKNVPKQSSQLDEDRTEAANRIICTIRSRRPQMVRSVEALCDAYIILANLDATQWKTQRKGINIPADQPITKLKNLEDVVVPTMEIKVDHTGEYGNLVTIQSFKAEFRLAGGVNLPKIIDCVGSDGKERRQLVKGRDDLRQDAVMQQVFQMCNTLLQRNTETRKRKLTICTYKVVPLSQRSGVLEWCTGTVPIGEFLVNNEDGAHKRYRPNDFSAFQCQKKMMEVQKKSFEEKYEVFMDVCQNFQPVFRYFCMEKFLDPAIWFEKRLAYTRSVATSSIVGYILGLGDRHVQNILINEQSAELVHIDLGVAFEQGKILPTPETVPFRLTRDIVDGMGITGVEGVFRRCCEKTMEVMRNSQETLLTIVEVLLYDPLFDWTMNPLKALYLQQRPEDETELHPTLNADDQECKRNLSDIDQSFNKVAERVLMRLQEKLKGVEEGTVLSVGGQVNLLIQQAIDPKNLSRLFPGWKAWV

SMILES | IC50 [1] [nM] | IC50 (Human-derived ATM kinase) [nM] | other results
CN1C(=O)C2(CCOCC2)c2c1cnc1ccc(-c3ccc(OCCCN(C4CC4)C4CC4)nc3)cc21 [Example 6] | 800 | 2 | 
CN1C(=O)C2(CCOCC2)c2c1cnc1ccc(-c3ccc(OCCCN4CCCCC4)nc3)cc21 [Example 24] | 80 | 2 | 
CN(C)CCCOc1ccc(-c2ccc3ncc4c(c3c2)C2(CCOCC2)C(=O)N4C2CC2)cn1 [Example 29] | 269 | 2 | 
CN(C)CCCOc1ccc(-c2cc3c4c(cnc3cc2F)N(C2CC2)C(=O)C42CCOCC2)cn1 [Example 34] | > 1000 | 5 | 
CN(C)CCCOc1ccc(-c2ccc3ncc4c(c3c2)C2(CCN(CC(F)(F)F)CC2)C(=O)N4C)cn1 [Example 13] | 27 | 4 | 
COC1CCC2(CC1)C(=O)N(C)c1cnc3ccc(-c4ccc(OCCCN(C)C)nc4)cc3c12 (centres unmarked) [Example 25] | 92 | 1 | 
CN(C)CCCOc1ccc(-c2ccc3ncc4c(c3c2)C2(CCOCC2)C(=O)N4C)cn1 [Example 1] | 78 | 0.9 | 
CN(C)CCCOc1ccc(-c2ccc3ncc4c(c3c2)C2(CCNCC2)C(=O)N4C)cn1 [Example 8] | 99 | 3 | 
CN(C)CCCOc1ccc(-c2ccc3ncc4c(c3c2)C2(CCC(C)(O)CC2)C(=O)N4C)cn1 (centres unmarked) [Example 27] | 99 | 1 | 
CN1C(=O)C2(CCOCC2)c2c1cnc1ccc(-c3ccc(OCCCN4CCC(F)CC4)nc3)cc21 [Example 5] | 92 | 2 | 
CN(C)CCCOc1ccc(-c2ccc3ncc4c(c3c2)C2(CCC(O)CC2)C(=O)N4C)cn1 (centres unmarked) [Example 26] | 76 | 1 | 
CCN1CCC2(CC1)C(=O)N(C)c1cnc3ccc(-c4ccc(OCCCN5CCCCC5)nc4)cc3c12 [Example 11] | 243 | 2 | 
O=C1N(C2CC2)c2cnc3cc(F)c(-c4ccc(OCCCN5CCCCC5)nc4)cc3c2C12CCOCC2 [Example 35] | > 1000 | 3 | 
CN(C)CCCOc1ccc(-c2cc3c4c(cnc3cc2F)N(C)C(=O)C42CCOCC2)cn1 [Example 33] | 593 | 1 | 
CN1C(=O)C2(CCN(C3CC3)CC2)c2c1cnc1ccc(-c3ccc(OCCCN4CCCCC4)nc3)cc21 [Example 23] | 30 | 0.8 | 
O=C1N(C2CC2)c2cnc3ccc(-c4ccc(OCCCN5CCCCC5)nc4)cc3c2C12CCOCC2 [Example 30] | 475 | 2 | 
COc1cc([C@@H]2c3cc4c(cc3[C@@H](O[C@@H]3O[C@@H]5CO[C@@H](C)O[C@H]5[C@H](O)[C@H]3O)[C@H]3COC(=O)[C@H]23)OCO4)cc(OC)c1O [Etoposide, etoposide, reference compound] |  |  | Tumor volume (mm^3) ([2]; Day 0 after administration): 125 ± 8 mm^3; Tumor volume (mm^3) ([2]; Day 3 after administration): 132 ± 11 mm^3; Tumor volume (mm^3) ([2]; Day 7 after administration): 259 ± 37 mm^3; Tumor volume (mm^3) ([2]; Day 10 after administration): 364 ± 47 mm^3; Tumor volume (mm^3) ([2]; Day 14 after administration): 552 ± 66 mm^3; Tumor volume (mm^3) ([2]; Day 17 after administration): 851 ± 84 mm^3; Tumor volume (mm^3) ([2]; Day 21 after administration): 1021 ± 112 mm^3; T/C (%) tumor proliferation rate [2]: 59.93%; TGI (%) tumor growth inhibition rate [2]: 41.95%; Tumor volume (mm^3) (Day 26) [2]: 1667 ± 193 mm^3
COC(=O)N1CCC2(CC1)C(=O)N(C)c1cnc3ccc(-c4ccc(OCCCN5CCCCC5)nc4)cc3c12 [Example 20] | 129 | 2 | 
CN1C(=O)C2(CCC(C)(O)CC2)c2c1cnc1ccc(-c3ccc(OCCCN4CCCCC4)nc3)cc21 (centres unmarked) [Example 28] | 334 | 2 | 

SMILES | IC50 [1] [nM] | IC50 (Human-derived ATM kinase) [nM] | other results
CC(C)N1CCC2(CC1)C(=O)N(C)c1cnc3ccc(-c4ccc(OCCCN5CCCCC5)nc4)cc3c12 [Example 16] | 204 | 4 | 
CC(C)OC(=O)N1CCC2(CC1)C(=O)N(C)c1cnc3ccc(-c4ccc(OCCCN(C)C)nc4)cc3c12 [Example 21] | 509 | 7 | 
CN1C(=O)C2(CCN(CC(F)(F)F)CC2)c2c1cnc1ccc(-c3ccc(OCCCN4CCCCC4)nc3)cc21 [Example 14] | 46 | 3 | 
CC(=O)N1CCC2(CC1)C(=O)N(C)c1cnc3ccc(-c4ccc(OCCCN(C)C)nc4)cc3c12 [Example 17] | 352 | 3 | 
COC(=O)N1CCC2(CC1)C(=O)N(C)c1cnc3ccc(-c4ccc(OCCCN(C)C)nc4)cc3c12 [Example 19] | 77 | 0.8 | 
CCN1CCC2(CC1)C(=O)N(C)c1cnc3ccc(-c4ccc(OCCCN(C)C)nc4)cc3c12 [Example 10] | 80 | 2 | 
CC(C)N1CCC2(CC1)C(=O)N(C)c1cnc3ccc(-c4ccc(OCCCN(C)C)nc4)cc3c12 [Example 15] | 41 | 2 | 
CN1C(=O)C2(CCOCC2)c2c1cnc1cc(F)c(-c3ccc(OCCCN4CCCCC4)nc3)cc21 [Example 32] | 561 | 2 | Tumor volume (mm^3) ([2]; Day 0 after administration): 125 ± 7 mm^3; Tumor volume (mm^3) ([2]; Day 3 after administration): 138 ± 6 mm^3; Tumor volume (mm^3) ([2]; Day 7 after administration): 229 ± 10 mm^3; Tumor volume (mm^3) ([2]; Day 10 after administration): 359 ± 36 mm^3; Tumor volume (mm^3) ([2]; Day 14 after administration): 644 ± 83 mm^3; Tumor volume (mm^3) ([2]; Day 17 after administration): 974 ± 129 mm^3; Tumor volume (mm^3) ([2]; Day 21 after administration): 1240 ± 157 mm^3; T/C (%) tumor proliferation rate [2]: 73.86%; TGI (%) tumor growth inhibition rate [2]: 27.36%; Tumor volume (mm^3) (Day 26) [2]: 2054 ± 221 mm^3
CN1C(=O)C2(CCOCC2)c2c1cnc1ccc(-c3ccc(OCCCN4CC[C@H](F)C4)nc3)cc21 [Example 3] | 48 | 1 | 
COCc1ccc(-c2ccc3ncc4c(c3c2)C2(CCOCC2)C(=O)N4C)cn1 [Example 31] | 88 | 63 | 
CN1C(=O)C2(CCOCC2)c2c1cnc1ccc(-c3cnn(C)c3)cc21 [Example 2] | 73 | 288 | 
CN1C(=O)C2(CCOCC2)c2c1cnc1ccc(-c3ccc(OCCCN4CC[C@@H](F)C4)nc3)cc21 [Example 4] | 62 | 1 | 
CN(C)CCCOc1ccc(-c2cc3c4c(cnc3cc2Cl)N(C)C(=O)C42CCOCC2)cn1 [Example 36] | > 1000 | 12 | 
CN(C)CCCOc1ccc(-c2ccc3ncc4c(c3c2)C2(CCC(F)(F)CC2)C(=O)N4C)cn1 [Example 7] | 153 | 1 | 
CN(C)CCCOc1ccc(-c2ccc3ncc4c(c3c2)C2(CCN(CC(F)F)CC2)C(=O)N4C)cn1 [Example 12] | 26 | 2 | 
CN(C)CCCOc1ccc(-c2ccc3ncc4c(c3c2)C2(CCN(C)CC2)C(=O)N4C)cn1 [Example 9] | 83 | 1 | 
CN(C)CCCOc1ccc(-c2ccc3ncc4c(c3c2)C2(CCN(C3CC3)CC2)C(=O)N4C)cn1 [Example 22] | 14 | 1 | 
CN(C)CCCOc1ccc(-c2ccc3ncc4c(c3c2)C2(CCN(C(=O)C3CC3)CC2)C(=O)N4C)cn1 [Example 18] | 343 | 2 | 

Reference: patent US11230549B2, “Quinolino-pyrrolidin-2-one derivative and application thereof” (MEDSHINE DISCOVERY INC., priority 2018, dated 2022)
